# Patent publication US20130302442A1, “METHODS OF USING (4S,4AS,5AR,12AS)-4-DIMETHYLAMINO-3,10,12,12A-TETRAHYDROXY-7-[(METHOXY(METHYL)AMINO)-METHYL]-1,11-DIOXO-1,4,4A,5,5A,6,11,12A-OCTAHYDRO-NAPHTHACENE-2-CARBOXYLIC ACID AMIDE” (priority 2012, published 2013)
# Where two headings read alike, the source gives them in different places.
# Columns and labels:
# S. aureus = assay: In vitro MIC testing, antibacterial spectrum of activity; assay type: cell-based, Staphylococcus aureus; settings: for MIC50 / MIC90 / MIC: Staphylococcus aureus; for MIC50: read-out: MIC50; for MIC90: read-out: MIC90
# [1] = tested on: Prevotella melaninogenica; assay: In vitro MIC testing against anaerobic bacteria; assay type: cell-based
# Chlamydia pneumoniae = assay: Susceptibility testing (MIC, MBC) of 10 isolates of C. pneumoniae in HEp-2 cells; assay type: cell-based
# [2] = tested on: community-acquired methicillin-resistant S. aureus (MRSA-CA); assay: In vitro MIC against isolates of MRSA-CA; assay type: cell-based, Staphylococcus aureus
# Bacteroides vulgatus = assay: In vitro MIC testing against anaerobic bacteria; assay type: cell-based
# [3] = tested on: Streptococcus constellatus; assay: In vitro MIC testing against anaerobic bacteria; assay type: cell-based; settings: Streptococcus constellatus, ATCC27823
# [4] = tested on: methicillin-sensitive S. aureus (MSSA); assay: In vitro MIC against isolates of MSSA; assay type: cell-based, Staphylococcus aureus
# Chlamydia trachomatis [5] = assay: Susceptibility testing (MIC, MBC) of 10 isolates of C. trachomatis in HEp-2 cells; assay type: cell-based
# S. epidermidis = assay: In vitro MIC testing, antibacterial spectrum of activity; assay type: cell-based, Staphylococcus epidermidis; settings: for MIC50 / MIC90: Staphylococcus epidermidis; for MIC50: read-out: MIC50; for MIC90: read-out: MIC90
# Prevotella spp. = assay: In vitro MIC testing against anaerobic bacteria; assay type: cell-based
# Lactobacillus plantarum = assay: In vitro MIC testing against anaerobic bacteria; assay type: cell-based; settings: Lactiplantibacillus plantarum, ATCC39268; Lactobacillus plantarum 2791, ATCC 39268
# Chlamydia trachomatis [6] = assay: In vitro susceptibility testing of Chlamydia trachomatis in HEp-2 cells (first study); assay type: cell-based; settings: Chlamydia trachomatis, C. trachomatis strains, read-out: MIC at which 90% of the strains were inhibited (MIC90)
# P. acnes = assay: In vitro MIC testing, antibacterial spectrum of activity; assay type: cell-based, Propionibacterium acnes; settings: for MIC50: read-out: MIC50; for MIC90: read-out: MIC90
# [7] = tested on: hospital-associated methicillin-resistant S. aureus (MRSA-HA); assay: In vitro MIC against isolates of MRSA-HA; assay type: cell-based, Staphylococcus aureus; settings: MRSA-HA (33 isolates)
# S. pneumoniae = assay: In vitro MIC testing, antibacterial spectrum of activity; assay type: cell-based, Streptococcus pneumoniae; settings: for MIC50 / MIC90: S. pneumoniae [PSSP] (32 isolates); for MIC50: read-out: MIC50; for MIC90: read-out: MIC90
# E. cloacae = assay: as above; assay type: cell-based; settings: Enterobacter cloacae; E. cloacae (30 isolates)
# Salmonella Spp. = assay: as above; assay type: cell-based; settings: Salmonella
# [8] = MRSA, S. aureus [MRSA] (31 isolates)
# [9] = MSSA, S. aureus [MSSA] (32 isolates)
# [10] = Prevotella melaninogenica 3443, read-out: MIC
# [11] = Staphylococcus aureus, MRSA-CA (33 isolates)
# [12] = Phocaeicola vulgatus, Bacteroides vulgatus 3389, read-out: MIC
# [13] = S. epidermidis [MRSE] (32 isolates)
# [14] = S. epidermidis [MSSE] (31 isolates)
# [15] = Cutibacterium acnes, P. acnes [clinical isolates] (55 isolates)
# [16] = Cutibacterium acnes, P. acnes [tetS] (13 isolates)
# [17] = S. pneumoniae [tetS] (5 isolates)
compound,measurement,setting,value
"C[C@H]1c2cccc(O)c2C(=O)C2=C(O)[C@]3(O)C(=O)C(C(N)=O)=C(O)[C@@H](N(C)C)[C@@H]3[C@@H](O)[C@@H]21 [Doxycycline, doxycycline]",MIC Range,S. aureus; S. aureus [MRSA] (31 isolates),0.12 to 2 µg/mL
same,MIC Range,S. aureus; S. aureus [MSSA] (32 isolates),0.12 to 8 µg/mL
same,MIC Range,S. aureus; S. aureus [tetR] (10 isolates),1 to 16 µg/mL
same,MIC Range,S. aureus; S. aureus [tetS] (20 isolates),≦0.06-0.25 μg/mL
same,MIC50,S. aureus; [8],0.12 µg/mL
same,MIC90,S. aureus; [8],0.25 µg/mL
same,MIC50,S. aureus; [9],0.12 µg/mL
same,MIC90,S. aureus; [9],0.25 µg/mL
same,MIC50,S. aureus; S. aureus [tetR] (10 isolates),4 µg/mL
same,MIC90,S. aureus; S. aureus [tetR] (10 isolates),16 µg/mL
same,MIC50,S. aureus; S. aureus [tetS] (20 isolates),≤ 0.06 µg/mL
same,MIC90,S. aureus; S. aureus [tetS] (20 isolates),0.25 µg/mL
same,MIC,"S. aureus; S. aureus strain PBS # 1309, tetK",2 µg/mL
same,MIC,"S. aureus; S. aureus strain PBS # 1310, tetM",16 µg/mL
same,MIC,"S. aureus; S. aureus strain PBS # 1739, tet38",2 µg/mL
same,MIC,[1],16 µg/mL
same,MIC,[1]; [10],1 µg/mL
same,MIC Range,Chlamydia pneumoniae; 72 h,0.0625 to 0.125 µg/mL
same,MIC50,"Chlamydia pneumoniae; Chlamydia pneumoniae, 72 h",0.125 µg/mL
same,MIC90,"Chlamydia pneumoniae; Chlamydia pneumoniae, 72 h",0.125 µg/mL
same,MBC,"Chlamydia pneumoniae; Chlamydia pneumoniae, after passage, read-out: MBC 90%",0.5 µg/mL
same,MBC 90%,Chlamydia pneumoniae; after passage,0.5 µg/mL
same,MBC Range,Chlamydia pneumoniae; after passage,0.25 to 0.5 µg/mL
same,MIC Range,[2]; MRSA-CA (33 isolates),0.12 to 8 µg/mL
same,MIC50,[2]; [11],0.12 µg/mL
same,MIC90,[2]; [11],2 µg/mL
same,MIC,"[2]; Staphylococcus aureus, single strain of doxycycline-resistant MRSA-CA",8 µg/mL
same,MIC,Bacteroides vulgatus; Bacteroides vulgatus 3494,8 µg/mL
same,MIC,Bacteroides vulgatus; [12],8 µg/mL
same,MIC,[3],16 µg/mL
same,MIC Range,[4]; MSSA (34 isolates),0.12 to 8 µg/mL
same,MIC50,"[4]; Staphylococcus aureus, MSSA (34 isolates)",0.25 µg/mL
same,MIC90,"[4]; Staphylococcus aureus, MSSA (34 isolates), read-out: MIC90",0.5 µg/mL
same,MIC,"[4]; Staphylococcus aureus, single strain of doxycycline-resistant MSSA",8 µg/mL
same,MIC Range,Chlamydia trachomatis [5]; 72 h,0.03 to 0.25 µg/mL
same,MIC50,"Chlamydia trachomatis [5]; Chlamydia trachomatis, 72 h",0.06 µg/mL
same,MIC90,"Chlamydia trachomatis [5]; Chlamydia trachomatis, 72 h",0.125 µg/mL
same,MBC,"Chlamydia trachomatis [5]; Chlamydia trachomatis, after passage, read-out: MBC 90%",0.125 µg/mL
same,MBC Range,Chlamydia trachomatis [5]; after passage,0.03 to 0.25 µg/mL
same,MIC Range,S. epidermidis; [13],0.12 to 8 µg/mL
same,MIC Range,S. epidermidis; [14],0.06 to 1 µg/mL
same,MIC50,S. epidermidis; [13],0.5 µg/mL
same,MIC90,S. epidermidis; [13],1 µg/mL
same,MIC50,S. epidermidis; [14],0.12 µg/mL
same,MIC90,S. epidermidis; [14],1 µg/mL
same,MIC,Prevotella spp.; Prevotella spp. 3564,1 µg/mL
same,MIC,Prevotella spp.; Prevotella spp. 3568,1 µg/mL
same,MIC,Lactobacillus plantarum,2 µg/mL
same,MIC90,Chlamydia trachomatis [6],0.125 µg/mL
same,MIC,P. acnes; Cutibacterium acnes,8 µg/mL
same,MIC50,P. acnes; [15],0.5 µg/mL
same,MIC90,P. acnes; [15],2 µg/mL
same,MIC50,P. acnes; [16],0.25 µg/mL
same,MIC90,P. acnes; [16],1 µg/mL
same,MIC Range,P. acnes; P. acnes [clinical isolates] (55 isolates),0.25 to 16 µg/mL
same,MIC Range,P. acnes; P. acnes [tetR] (2 isolates),8-8 μg/mL
same,MIC Range,P. acnes; P. acnes [tetS] (2 isolates),0.12 to 0.5 µg/mL
same,MIC Range,P. acnes; P. acnes [tetS] (13 isolates),0.25 to 1 µg/mL
same,MIC Range,[7],0.12 to 1 µg/mL
same,MIC50,[7]; Staphylococcus aureus,0.25 µg/mL
same,MIC90,[7]; Staphylococcus aureus,0.5 µg/mL
same,MIC Range,S. pneumoniae; S. pneumoniae [tetR] (5 isolates),4-4 μg/mL
same,MIC Range,S. pneumoniae; [17],≦0.06-0.125 μg/mL
same,MIC50,S. pneumoniae; Streptococcus pneumoniae,0.06 µg/mL
same,MIC90,S. pneumoniae; Streptococcus pneumoniae,0.12 µg/mL
same,MIC,"S. pneumoniae; Streptococcus pneumoniae, S. pneumoniae strain PBS # 511, tetM",4 µg/mL
"CN(C)c1ccc(O)c2c1C[C@H]1C[C@H]3[C@H](N(C)C)C(O)=C(C(N)=O)C(=O)[C@@]3(O)C(O)=C1C2=O [Minocycline, minocycline]",MIC,[1]; [10],1 µg/mL
same,MIC,Bacteroides vulgatus; Bacteroides vulgatus 3494,8 µg/mL
same,MIC,Bacteroides vulgatus; [12],8 µg/mL
same,MIC90,E. cloacae,16 µg/mL
same,MIC Range,S. epidermidis; [13],0.06 to 0.5 µg/mL
same,MIC Range,S. epidermidis; [14],0.06 to 0.25 µg/mL
same,MIC50,S. epidermidis; [13],0.12 µg/mL
same,MIC90,S. epidermidis; [13],0.25 µg/mL
same,MIC50,S. epidermidis; [14],0.06 µg/mL
same,MIC90,S. epidermidis; [14],0.25 µg/mL
same,MIC,Prevotella spp.; Prevotella spp. 3564,0.25 µg/mL
same,MIC,Prevotella spp.; Prevotella spp. 3568,0.25 µg/mL
same,MIC,Lactobacillus plantarum,0.5 µg/mL
same,MIC50,Salmonella Spp.,2 µg/mL
same,MIC Range,S. pneumoniae; [17],0.25-0.25 μg/mL
same,MIC50,S. pneumoniae; Streptococcus pneumoniae,0.06 µg/mL
same,MIC90,S. pneumoniae; Streptococcus pneumoniae,0.12 µg/mL
